Laboratory results from US6368651B1, “Use of additives to modify the taste characteristics of N-neohexyl-α-aspartyl-L-phenylalanine methyl ester” (The NutraSweet Company, priority 1999, dated 2002).
Structures can show the parent of a compound that is named as a salt. Where a SMILES comes first, the peptide text is derived from it.

How the values were obtained:
[1] = Taste evaluation in neotame-sweetened gelatin dessert; conditions: glycerin 8.4 ppm
[2] = Taste evaluation in neotame-sweetened reconstituted powdered soft drink
[3] = Taste evaluation in neotame-sweetened cola-flavored beverage; conditions: for taste characteristic imparted by neotame / taste compared to neotame-sweetened cola-flavored beverage / taste of beverage across tested concentrations: cola; for effectiveness as taste modifying ingredient: test cola-beverage formulation, concentration not given
Protocol: When a neotame salt was used as a taste modifying/sweetening ingredient, the neotame salt as added in an amount sufficient to provide about 15 ppm to about 25 ppm neotame (e.g., about 0.0028 g of a potassium neotame salt would be used to provide 100 ml of a 25 ppm neotame solution). The taste modifying ingredient was dissolved in the sweetened beverage and the beverage was allowed to stand overnight at room temperature prior to evaluation. Evaluations of the cola-flavored beverages were conducted using a beverage containing water, sodium benzoate (0.16%), phosphoric acid (0.22%), citric acid (0.05%), trisodium citrate (0.08%), caffeine (0.03%), Flavor 28 (1.72%), sweetened with neotame in an amount of about 0.0015% to about 0.0025% (15 ppm to 25 ppm), adjusted to pH 3.2 using sodium citrate.

[4] = Taste evaluation of solid tabletop sweetener in whitened, brewed coffee beverage; conditions: for effectiveness as taste modifying ingredient: tabletop sweetener in a whitened coffee beverage, concentration not given
Protocol: The following examples 51-78 are directed to solid tabletop sweetener preparations, specifically sachet or packet preparations, comprising mixtures of neotame, one or more taste modifying ingredients and a bulking agent. Taste evaluations were conducted on sweetened coffee or tea beverages prepared by dissolving the solid tabletop sweetener (total weight of 1.00 g) in a cup of brewed coffee or tea. The concentration of the ingredients in the tabletop sweetener is expressed as a percentage by weight, whereas the concentration of the ingredients in the beverage is expressed as parts per million (ppm) or parts per trillion (ppt). The beverages were prepared such that the concentration of neotame in sweetened, whitened coffee beverage was approximately 3-5 ppm and the concentration of neotame in sweetened tea was approximately 5-7 ppm.

[5] = Taste evaluation in neotame-sweetened hot cocoa beverage
[6] = Taste evaluation in neotame-sweetened strawberry-flavored yogurt; conditions: serine 25 ppm
[7] = on a weight basis; cited from earlier work

OCC(O)CO [glycerol]
taste characteristic imparted by neotame [1]: positively affected | taste characteristic imparted by neotame ([2]; glycerin 4 to 35 ppm, reconstituted punch-flavored powdered soft drink): positively affected | taste characteristic imparted by neotame ([3]; glycerol 15 ppm to 2,000 ppm): positively affected | taste characteristic imparted by neotame ([4]; glycerol 0.04% to 0.2% by weight (beverage 1.7 to 8.3 ppm), neotame 3.3 ppm, Unidex): positively affected

COc1ccc(CCC(=O)c2c(O)cc(O[C@@H]3O[C@H](CO)[C@@H](O)[C@H](O)[C@H]3O[C@@H]3O[C@@H](C)[C@H](O)[C@@H](O)[C@H]3O)cc2O)cc1O [neohesperidin dihydrochalcone]
taste characteristic imparted by neotame ([2]; neohesperidin dihydrochalcone 2 to 3 ppm, reconstituted punch or lemonade flavored powdered soft drinks): positively affected | taste characteristic imparted by neotame ([5]; neohesperidin dihydrochalcone 2 to 3 ppm): positively affected | taste characteristic imparted by neotame ([3]; NHDC 3 ppm): positively affected | taste characteristic imparted by neotame ([4]; neohesperidin dihydrochalcone 0.040% to 0.048% by weight (beverage 1.68 to 2.0 ppm), neotame 3.75 ppm, Unidex): positively affected

OC[C@@H](O)[C@@H](O)CO [erythritol]
taste characteristic imparted by neotame ([3]; erythritol 200 ppm to 10,000 ppm): positively affected

beta cyclodextrin-neotame complex
taste characteristic imparted by neotame ([4]; beta cyclodextrin-neotame complex 1.409% by weight (beverage 58.7 ppm, neotame 3.3 ppm), Unidex): positively affected

neotame-phosphate salt
taste compared to neotame-sweetened cola-flavored beverage ([3]; neotame-phosphate salt as sweetener): improved taste

N[C@@H](CO)C(=O)O [serine]
taste characteristic imparted by neotame ([2]; serine 5 ppm to 30 ppm, reconstituted strawberry-flavored powdered soft drink): positively affected | taste characteristic imparted by neotame [6]: positively affected | taste characteristic imparted by neotame ([3]; serine 50 ppm): positively affected

polysorbate 80
taste characteristic imparted by neotame ([3]; polysorbate 80 10 to 15 ppm): positively affected | effectiveness as taste modifying ingredient [4]: effective

neotame-monocalcium phosphate
effectiveness as taste modifying ingredient [3]: ineffective

COC(=O)[C@H](Cc1ccccc1)NC(=O)[C@H](CC(=O)[O-])NCCC(C)(C)C.COC(=O)[C@H](Cc1ccccc1)NC(=O)[C@H](CC(=O)[O-])NCCC(C)(C)C.[Ca+2] [calcium-neotame salt]
taste compared to neotame-sweetened cola-flavored beverage ([3]; calcium-neotame salt as sweetener): improved taste | taste characteristic imparted by neotame, compared to neotame-sweetened coffee beverage ([4]; calcium-neotame salt 0.056% by weight (beverage 2.33 ppm), Unidex): positively affected

C[C@@H]1O[C@@H](O[C@H]2[C@H](Oc3cc(O)c4c(c3)O[C@H](c3ccc(O)cc3)CC4=O)O[C@H](CO)[C@@H](O)[C@@H]2O)[C@H](O)[C@H](O)[C@H]1O [naringin]
effectiveness as taste modifying ingredient [3]: ineffective

COc1cc(C=O)ccc1O [vanillin]
taste characteristic imparted by neotame ([2]; vanillin 0.5 ppm, reconstituted punch and lemonade-flavored soft drinks): positively affected

COC(=O)[C@H](Cc1ccccc1)NC(=O)[C@H](CC(=O)[O-])NCCC(C)(C)C.[Na+] [sodium-neotame salt]
taste characteristic imparted by neotame, compared to neotame-sweetened coffee beverage ([4]; sodium-neotame salt 0.09% by weight (beverage 3.75 ppm), Unidex): positively affected

CCc1occc(=O)c1O [ethyl maltol]
taste characteristic imparted by neotame ([4]; ethyl maltol 0.0482% by weight (beverage 2 ppm), neotame 3.75 ppm, Unidex): positively affected

thaumatin
taste characteristic imparted by neotame ([4]; thaumatin 0.12% by weight (beverage 5.0 ppm), neotame 3.75 ppm, Unidex): positively affected

CC1(C)[C@@H](O[C@H]2O[C@H](C(=O)O)[C@@H](O)[C@H](O)[C@H]2O[C@@H]2O[C@H](C(=O)O)[C@@H](O)[C@H](O)[C@H]2O)CC[C@]2(C)[C@H]3C(=O)C=C4[C@@H]5C[C@@](C)(C(=O)O)CC[C@]5(C)CC[C@@]4(C)[C@]3(C)CC[C@@H]12.N [monoammonium glycyrrhizinate]
taste characteristic imparted by neotame ([3]; monoammonium glycyrrhizinate 0.25 ppm): positively affected

N[C@@H](Cc1ccc(O)cc1)C(=O)O [L-tyrosine]
taste characteristic imparted by neotame ([2]; tyrosine 35 ppm, reconstituted punch-flavored powdered soft drink): positively affected | taste characteristic imparted by neotame ([3]; L-tyrosine 15 to 50 ppm): positively affected | taste characteristic imparted by neotame ([4]; L-tyrosine 0.288% by weight (beverage 12 ppm), neotame 3.75 ppm, Unidex): positively affected

C[C@@H](O)[C@H](N)C(=O)O [threonine]
taste characteristic imparted by neotame ([3]; threonine 5 ppm to 30 ppm): positively affected

O=C1NS(=O)(=O)c2ccccc21 [saccharin]
taste characteristic imparted by neotame ([2]; saccharin 20 to 40 ppm, reconstituted punch or lemonade-flavored powdered soft drink): positively affected | taste characteristic imparted by neotame ([5]; saccharin 20 to 40 ppm): positively affected | taste characteristic imparted by neotame ([3]; saccharin 20 to 150 ppm): positively affected | taste of beverage across tested concentrations ([3]; saccharin 100 ppm): best tasting beverage | taste characteristic imparted by neotame ([4]; saccharin 1.32% by weight (beverage 5.5 ppm), neotame 3.75 ppm, Unidex): positively affected

Neotame-monopotassium phosphate
effectiveness as taste modifying ingredient [3]: ineffective

Cc1occc(=O)c1O [maltol]
taste characteristic imparted by neotame ([4]; maltol 0.035% by weight (beverage 1.44 ppm), neotame 3.75 ppm, Unidex): positively affected

[Ca+2].[Cl-].[Cl-] [calcium chloride]
taste characteristic imparted by neotame ([4]; calcium chloride 0.072% by weight (beverage 3 ppm), neotame 3.75 ppm, Unidex): positively affected

COC(=O)[C@H](Cc1ccccc1)NC(=O)[C@H](CC(=O)O)NCCC(C)(C)C [neotame, N-[N-(3,3-dimethylbutyl)-L-α-aspartyl]-L-phenylalanine 1-methyl ester]
sweetness relative to sucrose [7]: approximately 8,000 times as sweet as sucrose

COC(=O)[C@H](Cc1ccccc1)NC(=O)[C@@H](N)CC(=O)O [aspartame] (H-Asp-Phe-OMe)
taste characteristic imparted by neotame ([2]; aspartame 100 to 160 ppm, reconstituted punch or lemonade-flavored powdered soft drink): positively affected | taste characteristic imparted by neotame ([5]; aspartame 100 ppm): positively affected | taste characteristic imparted by neotame ([3]; aspartame 20 to 40 ppm): positively affected | taste characteristic imparted by neotame ([4]; aspartame 0.6% to 1.25% by weight (beverage 25 to 52 ppm), neotame 3.75 ppm, Unidex bulking agent): positively affected

[Cl-].[Na+] [sodium chloride]
taste characteristic imparted by neotame ([3]; sodium chloride 5 to 50 ppm): positively affected | taste of beverage across tested concentrations ([3]; sodium chloride 10 ppm): best tasting beverage

COC1=C(C)OC(C)C1=O (centres unmarked) [Mesifuran]
effectiveness as taste modifying ingredient [3]: not an effective taste modifying ingredient

CC1=CC(=O)NS(=O)(=O)O1.COC(=O)C(Cc1ccccc1)NC(=O)C(CC(=O)O)NCCC(C)(C)C (centres unmarked) [acesulfame-neotame salt]
taste compared to neotame-sweetened cola-flavored beverage ([3]; acesulfame-neotame salt 40 ppm): improved taste

[Cl-].[K+] [potassium chloride]
effectiveness as taste modifying ingredient [3]: ineffective

OC[C@@H](O)[C@@H](O)[C@H](O)[C@@H](O)CO [sorbitol]
effectiveness as taste modifying ingredient [3]: ineffective

polysorbate 65
taste characteristic imparted by neotame ([3]; polysorbate 65 10 to 15 ppm): positively affected

OC[C@@H](O)[C@@H](O)[C@H](O)[C@H](O)CO [mannitol]
taste characteristic imparted by neotame ([3]; mannitol 100 ppm to 2,000 ppm): positively affected

polysorbate 60
taste characteristic imparted by neotame ([3]; polysorbate 60 10 to 15 ppm): positively affected | taste characteristic imparted by neotame ([4]; polysorbate 60 0.05% to 0.10% by weight (beverage 2.08 to 4.2 ppm), neotame 3.75 ppm, Unidex): positively affected | effectiveness as taste modifying ingredient [4]: effective

COC(=O)[C@H](Cc1ccccc1)NC(=O)[C@H](CC(=O)[O-])NCCC(C)(C)C.[K+] [potassium-neotame salt]
taste compared to neotame-sweetened cola-flavored beverage ([3]; potassium-neotame salt as sweetener): improved taste | taste characteristic imparted by neotame, compared to neotame-sweetened coffee beverage ([4]; potassium-neotame salt 0.11% by weight (beverage 4.58 ppm), Unidex): positively affected

OC[C@@H](O)[C@H](O)[C@@H](O)CO [xylitol]
effectiveness as taste modifying ingredient [3]: ineffective

Cn1c(=O)c2c(ncn2C)n(C)c1=O [caffeine]
taste characteristic imparted by neotame ([3]; caffeine 140 to 425 ppm): positively affected

C=C[C@H]1C[N@@]2CC[C@H]1C[C@H]2[C@H](O)c1ccnc2ccc(OC)cc12 [quinine sulfate]
taste characteristic imparted by neotame ([3]; quinine sulfate 0.01 to 1 ppm): positively affected

CC1=CC(=O)[N-]S(=O)(=O)O1.[K+] [acesulfame-K]
taste characteristic imparted by neotame ([2]; acesulfame-K 40 to 100 ppm, reconstituted punch or lemonade-flavored powdered soft drink): positively affected | taste characteristic imparted by neotame ([5]; acesulfame-K 40 to 100 ppm): positively affected | taste characteristic imparted by neotame ([3]; acesulfame-K 20 to 40 ppm, neotame 15-25 ppm): positively affected

OC[C@H]1O[C@@](CO)(O[C@H]2O[C@H](CO)[C@@H](O)[C@H](O)[C@H]2O)[C@@H](O)[C@@H]1O [sucrose]
taste characteristic imparted by neotame ([3]; sucrose 2000 ppm to 4000 ppm): positively affected
